Measured values: patent US5916906A, “Compositions comprising nicotinylalanine and an inhibitor of glycine conjugation or vitamin B6” (priority 1997, dated 1999)
Where two headings read alike, the source gives them in different places.

Legend:
LP-BM5 MuLV Retrovirus [1] = experiment: MAIDS model: disease stage score, attainment of disease score 4 (Kaplan-Meier) and survival up to 28 weeks; assay type: in vivo, C57BL/6 mice
Text: Each value represents the mean and one standard standard deviation for groups of surviving mice (at least 4 mice per group) at termination of the study, following 28 weeks post-inoculation by LP-BM5 virus.
(§1) Each group consisted of 8 mice, except for the virus-negative control group which consisted of 6 mice.
as §1
This study was designed to determine whether nicotinylalanine (NAL) alone or in combination with acetylsalicylic acid (ASA) will prevent or alter the course of murine retroviral-induced immunodeficiency disease, MAIDS, in C57BL/6 female mice. The LP-BM5 MuLV virus used for these studies was prepared from chronically infected SC-1 cells (ATCC Cat. No. CRL-1404), as described by Yetter R. A. et al., J. Exp. Med., 168, 623-635, 1988. […] The MAIDS model is well characterized and reproducible in the laboratory, as described by Mosier D. E. et al., J. Exp. Med. 161, 766-784, 1985.
Measures of disease progression followed the methods developed by Eiseman et al., 1991 (Ibid). Disease scores 0 through +4 are based upon body weight gain and palpable alterations in the size of lymph nodes and spleen. Severity of disease is scored as follows: 0.5, increased body weight and variably detected increase in size of any one lymph node or spleen; +1, clearly detectable increase in the size of a lymph node and spleen; +2, readily detectable (greater than 0.3 cm in diameter) increased size in more than one lymph node and, in particular, enlargement of subcervical, brachial or axillary nodes; +3, increased size of all palpable nodes and palpable splenomegaly (≥0.3 grams); +4, advanced disease with extensive splenomegaly (>1.0 grams) and lymphadenopathy.
Specific pathogen free, female C57BL/6 mice (5 weeks of age) were purchased from Charles River Breeding Laboratories. All mice were allowed one week to acclimate to housing facilities prior to randomization for study. Animals were marked for identification and placed in microisolator cages with identifying cards (5 mice/cage), where autoclaved food and water were provided ad libitum.
NAL and ASA were formulated under sterile conditions according to preformulation methods outlined in Remington's Pharmaceutical Sciences Handbook, 18th Edition, 1990, ibid). NAL and ASA were dissolved in sterile phosphate-buffered normal saline solution (i.e., vehicle; Biofluids Inc., Lot 413054), adjusted to between pH 7.2 to 7.4 with […], sterilized by filtration through 0.2 μm bottle-type filters, and dispersed into sterile glass vials, sealed and capped (Wheaton Inc.).
Except for Group 6 (which began treatment 2 weeks after virus inoculation),test drug injections began 1 day after virus infection and continued every day except weekends (i.e., 5 times per week).

[2] = Plasma nicotinamide levels in LP-BM5 infected mice (HPLC); assay type: in vivo, C57BL/6 mice; conditions: NAL 400 mg/kg; for Mean Plasma Nicotinamide Level: virus-positive, mean ± SD
Description: Mice were sacrificed on Tuesdays at monthly intervals after
inoculation, approximately 24 hours after their last treatment.
At time of sacrifice, blood was collected by cardiac puncture and stored
Results are expressed as mean concentrations ± standard deviation in

LP-BM5 MuLV Retrovirus [3] = conditions: cited from earlier work
[4] = Plasma nicotinamide, NAL and NAL-X levels by HPLC after i.p. nicotinylalanine with or without ASA in uninfected mice; assay type: in vivo, C57BL/6 mice; conditions: for Plasma nicotinamide (NAm) level / concentration at 2 h: mean ± S.E., N=8; for concentration at 2 h: mouse, plasma, ip, 400 mg/kg, read-out: Plasma nicotinylalanine (NAL) level
Description: The concentration of nicotinamide and its major metabolites were determined by comparison of peak area ratios of the unknown versus internal standard (6-methylnicotinamide, Sigma Chemical Company) to the standard curves run in control mouse blood plasma.
Mice were treated with racemic nicotinylalanine alone (400 mg/kg) or in combination with acetyl salicylic acid (ASA) at a dose of either 20 mg/kg or 100 mg/kg body weight. […] Control mice received the vehicle for the drug compositions, being phosphate buffered saline (PBS), at the same volume on the same dose schedule as the drug-treated mice. Chronic dosing was performed daily for two weeks, Monday through Friday, and one group of mice received only a single (acute) dose of nicotinylalanine. All mice were killed two hours after their final dose and blood was collected by cardiac puncture and stored on ice, until centrifugation in a microfuge at 10,000 rpm to obtain plasma.
Concentrations of nicotinamide, nicotinamide-oxide, 1-methyl-nicotinamide, and nicotinylalanine extracted from 90% methanol, dried under N2, and reconstituted in water as above were determined by comparison of the peak area ratios of the unknown vs. the internal standard to the standard curve. Concentrations of the unidentified nicotinylalanine metabolite (NAL-X) were determined in the same way as above, except peaks were compared to the standard curve for known nicotinylalanine. The results are expressed as nanomoles of nicotinamide and nicotinylalanine per ml of plasma (nmol/ml).

[5] = Urinary N-methylnicotinamide in rats treated with nicotinylalanine (literature); assay type: in vivo; conditions: following nicotinylalanine injection, inferred from urinary N-methylnicotinamide
Text: As discussed above, these benefits of nicotinylalanine treatment are applicable to other diseases besides neurodegeneration. R. H. Decker, et al. (ibid) reported a 4-5 fold increase in N-methylnicotinamide levels in the urine of rats treated with nicotinylalanine. Since N-methylnicotinamide is a major urinary excretion product of nicotinamide in the rat, increases in the endogenous levels of nicotinamide following nicotinylalanine injection are at least 5 fold.

[6] = Behavioral toxicity, chronic i.p. dosing in mice; assay type: in vivo, C57BL/6 mice; conditions: chronic i.p. racemic NAL 400 mg/kg, more than four months
Description: Results from studies in a mouse model of AIDS (i.e., the LP-BM5 strain of murine leukemia virus-induced murine acquired immunodeficiency syndrome, MAIDS) are consistent with efficacy of a parenteral dose in humans of nicotinylalanine (isomer) between about 100 and 200 mg/kg body weight per day in combination with aspirin at about 20 mg/kg per day. […] Connick J. H., et al., Gen. Pharmac., 23:235-239, 1992. […] Vague P., et al., Lancet, I:619-620, 1987. This is consistent with the lack of toxicity reported for NAm in other human studies. (Hoffer A., Schizophrenia, 1:78-87, 1969).

[7] = rats treated with nicotinylalanine (Decker); cited from earlier work
[8] = acute 500 mg/kg racemic NAL (Connick 1992); cited from earlier work
[9] = Month 1, ASA 20 mg/kg, AZT as in Table 4
[10] = Month 1, ~24 h after last treatment, ASA 20 mg/kg, AZT printed 1 mg/kg
[11] = Month 2, ASA 20 mg/kg, AZT as in Table 4
[12] = Month 2, ~24 h after last treatment, ASA 20 mg/kg, AZT printed 1 mg/kg
[13] = Month 3, ASA 20 mg/kg, AZT as in Table 4
[14] = Month 3, ~24 h after last treatment, ASA 20 mg/kg, AZT printed 1 mg/kg
[15] = Month 4, ~24 h after last treatment, ASA 20 mg/kg, AZT printed 1 mg/kg
[16] = acute (single) NAL 400 mg/kg i.p., two hours after dose
[17] = chronic (2 Week) dosing of nicotinylalanine alone
[18] = chronic (2 weeks) NAL 400 mg/kg i.p. alone, two hours after last dose
[19] = two hours after acute i.p. 400 mg/kg NAL
[20] = NAL 400 mg/kg delayed by two weeks, FIG. 5

## Cc1cn([C@H]2C[C@H](N=[N+]=[N-])[C@@H](CO)O2)c(=O)[nH]c1=O [AZT, 3'azido-3'deoxythymidine, reference compound]
LP-BM5 MuLV Retrovirus [1]; Groups 4 and 7
  Disease score of mice that died prior to termination: 0.5
LP-BM5 MuLV Retrovirus [1]; treatment from day 1, FIG. 6
  Survival vs LP-BM5 virus-positive control (log-rank p): 0.0308
[2]; [9]
  Ratio of plasma nicotinamide mean to placebo (PBS Control, Group 1): 1.59
[2]; [10]
  Mean Plasma Nicotinamide Level: 5.1 ± 0.6 nmol/mL
[2]; [11]
  Ratio of plasma nicotinamide mean to placebo (PBS Control, Group 1): 1.54
[2]; [12]
  Mean Plasma Nicotinamide Level: 6.0 ± 0.4 nmol/mL
[2]; [13]
  Ratio of plasma nicotinamide mean to placebo (PBS Control, Group 1): 2.26
[2]; [14]
  Mean Plasma Nicotinamide Level: 5.2 ± 3.0 nmol/mL
[2]; [15]
  Mean Plasma Nicotinamide Level: 5.8 ± 0.4 nmol/mL
LP-BM5 MuLV Retrovirus [3]; AZT 0.1 mg/kg (Eiseman 1991)
  Disease progression (in words): still delayed disease progression
LP-BM5 MuLV Retrovirus [3]; AZT 0.5 mg/kg in drinking water, chronic (Eiseman 1991)
  Control of LP-BM5 disease (in words): effective in controlling LP-BM5 disease

## NC(CC(=O)c1cccnc1)C(=O)O (racemic) [NAL, γ-(3-pyridyl)-γ-oxo-α-aminobutyrate]
[4]; [16]
  Plasma nicotinamide (NAm) level: 7.4 ± 2.3 nmol/mL
  concentration at 2 h: 115 ± 65.6 µM
[4]; [17]
  Change in plasma nicotinylalanine levels: nearly ten-fold decrease
  Nicotinamide plasma level (in words): return to nearly baseline levels of nicotinamide
[4]; [18]
  Plasma nicotinamide (NAm) level: 4.7 ± 1.1 nmol/mL
  concentration at 2 h: 11.2 ± 4.5 µM
[4]; [19]
  Nicotinamide plasma level versus PBS-injected controls: about twice those found in PBS-injected controls
  Plasma level of NAL versus NAL-X: about twice as high
LP-BM5 MuLV Retrovirus [1]; NAL 400 mg/kg after two week delay, FIG. 6
  Survival vs LP-BM5 virus-positive control (log-rank p): 0.2492
LP-BM5 MuLV Retrovirus [1]; [20]
  Retardation of disease progression (score +4), Log-Rank p: 0.0469
  Retardation of disease progression (score +4), Wilcoxon p: 0.0258
LP-BM5 MuLV Retrovirus [1]; NAL 400 mg/kg delayed by two weeks, FIG. 6
  Survival vs vehicle-injected control (Wilcoxon p): 0.1756
LP-BM5 MuLV Retrovirus [1]; treatment from day 1, FIG. 6
  Survival vs LP-BM5 virus-positive control (log-rank p): 0.9621
[2]; [9]
  Ratio of plasma nicotinamide mean to placebo (PBS Control, Group 1): 1.06
[2]; Month 1, delayed 2 weeks
  Ratio of plasma nicotinamide mean to placebo (PBS Control, Group 1): 1.16
[2]; [10]
  Mean Plasma Nicotinamide Level: 3.4 ± 0.9 nmol/mL
[2]; Month 1, delayed Rx 2 weeks
  Mean Plasma Nicotinamide Level: 3.7 ± 1.1 nmol/mL
[2]; [11]
  Ratio of plasma nicotinamide mean to placebo (PBS Control, Group 1): 1.13
[2]; Month 2, delayed 2 weeks
  Ratio of plasma nicotinamide mean to placebo (PBS Control, Group 1): 1.49
[2]; [12]
  Mean Plasma Nicotinamide Level: 4.4 ± 0.5 nmol/mL
[2]; Month 2, delayed Rx 2 weeks
  Mean Plasma Nicotinamide Level: 5.8 ± 0.5 nmol/mL
[2]; [13]
  Ratio of plasma nicotinamide mean to placebo (PBS Control, Group 1): 1.35
[2]; Month 3, delayed 2 weeks
  Ratio of plasma nicotinamide mean to placebo (PBS Control, Group 1): 1.65
[2]; [14]
  Mean Plasma Nicotinamide Level: 3.1 ± 0.4 nmol/mL
[2]; Month 3, delayed Rx 2 weeks
  Mean Plasma Nicotinamide Level: 3.8 ± 0.1 nmol/mL
[2]; Month 4, ASA 20 mg/kg, AZT as in Table 4
  Ratio of plasma nicotinamide mean to placebo (PBS Control, Group 1): 1.88
[2]; Month 4, delayed 2 weeks
  Ratio of plasma nicotinamide mean to placebo (PBS Control, Group 1): 1.84
[2]; [15]
  Mean Plasma Nicotinamide Level: 4.7 ± 0.5 nmol/mL
[2]; Month 4, delayed Rx 2 weeks
  Mean Plasma Nicotinamide Level: 4.6 ± 0.3 nmol/mL
[5]
  Increase in endogenous nicotinamide levels: at least 5 fold
[6]
  Behavioral toxicity: not been associated with obvious behavioral toxicity
[7]
  Increase in N-methylnicotinamide levels in urine: 4-5 fold
[8]
  Behavioral effects: not to result in any behavioral effects
